The text below walks through data of patent EP3658131B1, “COMPOSITION FOR THE TREATMENT OF BACTERIAL VAGINOSIS” (Farma-Derma S.R.L., priority 2017, dated 2019).

Assay type in all cases: cell-based
For assay [1], the system named is Lactobacillus Acidophilus ATCCC 4356. Description: Survival/growth of lactobacilli after incubation with the mixtures (Test 2). To be noted: 4 hours at 37°C. How it is done: (§1) 3 different mixtures of substances were prepared whose composition is described below: − MD(5mg) + AL(90%,11mg) [formula] − DQC(8mg) [formula] − DQC(8mg) + MD(5mg) + AL(90%,11mg) [formula]
(§2) To evaluate the antibacterial efficacy of the ingredients in the three compositions described above, the pure raw materials directly dissolved in the culture medium were tested. Aliquots of the 3 mixtures were prepared for each of the bacterial strains being evaluated. Each mixture was placed in a receptacle containing a suitable volume of a peptone water solution with pH 5.5 having a concentration of the bacterial strain equal to at least 10^5 CFU/ml.
(§3) Each container was placed in incubation at 37°C for 4 hours to promote the dissolution and the action of the ingredients. A negative control was prepared for each strain i.e. a solution without the presence of the substances being tested, which is treated in the same experimental conditions as the receptacles containing the mixtures being tested.
(§4) At the end of the incubation period the contents of each container were neutralised and seeded in a suitable culture medium, the micro-organisms that had grown were counted. Each seeding was performed in triplicate.

Assay [2] deals with Gardnerella vaginalis ATCC 11418. Description: Reduction of microbial load after incubation with the mixtures (Test 2). As to conditions: 4 hours at 37°C. How it is done: as §1, §2, §3, §4
Assay [3] deals with Escherichia coli ATCC 8739. The assay is described as above. To be noted: 4 hours at 37°C. How it is done:
as §1, §2, §3, §4

Assay [4] relates to Prevotella loescheii ATCC 15930. The description is as above. To be noted: 4 hours at 37°C. How it is done: as §1, §2, §3, §4
The subject of assay [5] is Staphylococcus aureus ATCC 6538. The assay is described as above. To be noted: 4 hours at 37°C. How it is done: as §1, §2, §3, §4
The test system of assay [6] is Gardnerella vaginalis ATCC 11418 + Lactobacillus Acidophilus ATCCC 4356. Description: Survival/growth of lactobacilli in metabolic competition with a pathogenic strain (Test 2). As to conditions: for Reduction in microbial load with respect to the negative control: values only refer to the lactobacilli, negative value = growth. How it is done: The selectivity of the compostion is verified by evaluating the survival ability of the Lactobacillus Acidophilus in the presence and absence of another bacterial strain in metabolic competition.
as §1, §2, §3, §4

The mark [7] stands for this setting: peptone water pH 5.5, at least 10^5 CFU/ml, mean of 3 replicates.

`Cc1cc(N)c2ccccc2[n+]1CCCCCCCCCC[n+]1c(C)cc(N)c2ccccc21` [DQC, dequalinium chloride]: the Microbial load in assay [1] (setting [7]) is recorded as 5,267 CFU/ml; in assay [2] (setting [7]), 4,205 CFU/ml; in assay [3] (setting [7]) it was 1,037,400 CFU/ml; in assay [4] (setting [7]), 3,367 CFU/ml; in assay [5] (setting [7]), 14,267 CFU/ml; in assay [6] (values only refer to the lactobacilli (selective media), 4 hours at 37°C, pH 5.5, mean of 3 replicates), 1,400 CFU/ml. Further, the “Reduction in microbial load with respect to the negative control” value turned out to be 96.18% in assay [1] (peptone water pH 5.5, negative value = growth); 74.31% in assay [2] (peptone water pH 5.5); 50.60% in assay [3] (peptone water pH 5.5); 90.56% in assay [4] (peptone water pH 5.5); 60.00% in assay [5] (peptone water pH 5.5); 60.00% in assay [6]. Also, in assay [6] (listed as dequalinium), the “Reduction in microbial load with respect to the negative control” value turned out to be 60.00%.
